Bridge positions count the residues as written; N and C are the ends. Square brackets hold non-standard residues; d marks the D form. Peptide text beside a SMILES is read from it. * marks the point of attachment. ξ: configuration not given here. Bip = N[C@@H](Cc1ccc(-c2ccccc2)cc1)C(=O)O; NH(CH2)14COOH = O=C(O)CCCCCCCCCCCCCCN*; Phe(3-Me) = Cc1cccc(C[C@H](N)C(=O)O)c1; NH(CH2)12COOH = O=C(O)CCCCCCCCCCCCN*; hArg = N=C(N)NCCCC[C@H](N)C(=O)O; Cha = N[C@@H](CC1CCCCC1)C(=O)O; Cit = NC(=O)NCCC[C@H](N)C(=O)O; Ile(3ξ) = CCC(C)[C@H](N)C(=O)O; Thr(3ξ) = CC(O)[C@H](N)C(=O)O; 12Ado = NCCCCCCCCCCCC(=O)O; Carboxymethyl = O=C(O)C*; Orn = NCCC[C@H](N)C(=O)O; Aun = NCCCCCCCCCCC(=O)O; Dab = NCC[C@H](N)C(=O)O; Dap = NC[C@H](N)C(=O)O; AEEA = NCCOCCOCC(=O)O
Biological target: T1, PD-1/PD-L1 interaction (PE-labeled human PD-L1-Ig binding to Jurkat cell line over-expressing human PD-1) (Homo sapiens, UniProt Q15116)
T1 construct: expressed in transfected cells; host or cells: Jurkat
Test: Jurkat-PD-1 Cell Binding High-Content Screening Assay (CBA)
Format: cell-based
Settings: Jurkat cell line over-expressing human PD-1; PE-labeled PD-L1-Ig 20 nM final; read-out: Jurkat hPD1-PDL1 IC50
Procedure, shortened: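 Human PD-L1-Ig carrying a covalent PE label on its Ig tag serves as the probe, applied at 20 nM final to compound-treated (2 h, 37° C) Jurkat-hPD-1 cells in medium with 10% fetal calf serum. After one hour, fixation and nuclear staining precede high-content image analysis.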

T1 sequence (Q15116 25-288): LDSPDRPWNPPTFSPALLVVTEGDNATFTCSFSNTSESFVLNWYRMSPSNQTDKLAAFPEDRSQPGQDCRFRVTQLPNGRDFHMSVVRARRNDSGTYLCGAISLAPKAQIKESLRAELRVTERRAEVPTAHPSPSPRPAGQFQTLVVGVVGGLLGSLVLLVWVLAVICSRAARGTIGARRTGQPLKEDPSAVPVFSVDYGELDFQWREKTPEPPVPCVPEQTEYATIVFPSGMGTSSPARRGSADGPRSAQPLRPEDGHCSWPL

SMILES | IC50
CCC(C)[C@@H]1NC(=O)[C@H](CC2CCCCC2)NC(=O)[C@H](CCN)NC(=O)[C@@H](CC(C)C)NC(=O)[C@H](CCCN)NC(=O)[C@H](C(C)CC)NC(=O)[C@H](Cc2ccc(-c3ccccc3)cc2)NC(=O)[C@H](C(C)CC)NC(=O)[C@H](Cc2c[nH]c3ccccc23)NC(=O)[C@H](CC(=O)O)NC(=O)[C@H](Cc2ccc(OCC(=O)O)cc2)NC(=O)[C@H](C(C)O)NC(=O)CSC[C@@H](C(=O)N[C@H](CC(N)=O)C(=O)NCCOCCOCC(=O)N[C@@H](CCCN)C(=O)NCCCCCCCCCCC(=O)O)NC(=O)[C@H](CO)NC1=O (stereo partly drawn) [Compound 3120] ({CH2CO}-[Thr(3ξ)]Y(Carboxymethyl)DW[Ile(3ξ)][Bip][Ile(3ξ)][Orn][dL][Dab][Cha][Ile(3ξ)]SC[dN][AEEA][Orn][Aun]-OH; thioether N-14) | 24.8 nM
CCC(C)[C@@H]1NC(=O)[C@H](CC2CCCCC2)NC(=O)[C@H](CCN)NC(=O)[C@@H](CC(C)C)NC(=O)[C@H](CCCN)NC(=O)[C@H](C(C)CC)NC(=O)[C@H](Cc2ccc(-c3ccccc3)cc2)NC(=O)[C@H](C(C)CC)NC(=O)[C@H](Cc2c[nH]c3ccccc23)NC(=O)[C@H](CC(=O)O)NC(=O)[C@H](Cc2ccc(OCC(=O)O)cc2)NC(=O)[C@H](C(C)O)NC(=O)CSC[C@@H](C(=O)N[C@@H](CN)C(=O)NCCOCCOCC(=O)N[C@@H](CCCN)C(=O)NCCCCCCCCCCC(=O)O)NC(=O)[C@H](CO)NC1=O (stereo partly drawn) [Compound 3121] ({CH2CO}-[Thr(3ξ)]Y(Carboxymethyl)DW[Ile(3ξ)][Bip][Ile(3ξ)][Orn][dL][Dab][Cha][Ile(3ξ)]SC[Dap][AEEA][Orn][Aun]-OH; thioether N-14) | 10.4 nM
Cc1cccc(C[C@@H]2NC(=O)[C@H](CC(=O)O)NC(=O)[C@H](Cc3ccc(OCC(=O)O)cc3)NC(=O)[C@H](CN)NC(=O)CSC[C@@H](C(=O)N[C@@H](CCCN)C(=O)NCCCCCCCCCCCC(=O)O)NC(=O)[C@H](C(C)O)NC(=O)[C@H](C(C)C)NC(=O)[C@H](CC3CCCCC3)NC(=O)[C@H](CCN)NC(=O)[C@@H](CC(C)C)NC(=O)[C@H](CCCN)NC(=O)[C@H](CCCNC(N)=O)NC(=O)[C@H](Cc3ccc(-c4ccccc4)cc3)NC(=O)[C@H](C(C)C)NC2=O)c1 (stereo partly drawn) [Compound 3122] ({CH2CO}-[Dap]Y(Carboxymethyl)D[Phe(3-Me)]V[Bip][Cit][Orn][dL][Dab][Cha]V[Thr(3ξ)]C[Orn][12Ado]-OH; thioether N-14) | 19.3 nM
Cc1cccc(C[C@@H]2NC(=O)[C@H](CC(=O)O)NC(=O)[C@H](Cc3ccc(OCC(=O)O)cc3)NC(=O)[C@H](CN)NC(=O)CSC[C@@H](C(=O)N[C@@H](CCCN)C(=O)NCCCCCCCCCCCCC(=O)O)NC(=O)[C@H](C(C)O)NC(=O)[C@H](C(C)C)NC(=O)[C@H](CC3CCCCC3)NC(=O)[C@H](CCN)NC(=O)[C@@H](CC(C)C)NC(=O)[C@H](CCCN)NC(=O)[C@H](CCCNC(N)=O)NC(=O)[C@H](Cc3ccc(-c4ccccc4)cc3)NC(=O)[C@H](C(C)C)NC2=O)c1 (stereo partly drawn) [Compound 3123] ({CH2CO}-[Dap]Y(Carboxymethyl)D[Phe(3-Me)]V[Bip][Cit][Orn][dL][Dab][Cha]V[Thr(3ξ)]C[Orn]-{NH(CH2)12COOH}; thioether N-14) | 82.9 nM
Cc1cccc(C[C@@H]2NC(=O)[C@H](CC(=O)O)NC(=O)[C@H](Cc3ccc(OCC(=O)O)cc3)NC(=O)[C@H](CN)NC(=O)CSC[C@@H](C(=O)N[C@@H](CCCN)C(=O)NCCCCCCCCCCCCCCC(=O)O)NC(=O)[C@H](C(C)O)NC(=O)[C@H](C(C)C)NC(=O)[C@H](CC3CCCCC3)NC(=O)[C@H](CCN)NC(=O)[C@@H](CC(C)C)NC(=O)[C@H](CCCN)NC(=O)[C@H](CCCNC(N)=O)NC(=O)[C@H](Cc3ccc(-c4ccccc4)cc3)NC(=O)[C@H](C(C)C)NC2=O)c1 (stereo partly drawn) [Compound 3124] ({CH2CO}-[Dap]Y(Carboxymethyl)D[Phe(3-Me)]V[Bip][Cit][Orn][dL][Dab][Cha]V[Thr(3ξ)]C[Orn]-{NH(CH2)14COOH}; thioether N-14) | 281 nM
Cc1cccc(C[C@@H]2NC(=O)[C@H](CC(=O)O)NC(=O)[C@H](Cc3ccc(OCC(=O)O)cc3)NC(=O)[C@H](CN)NC(=O)CSC[C@@H](C(=O)N[C@@H](CCN)C(=O)NCCCCCCCCCCCC(=O)O)NC(=O)[C@H](C(C)O)NC(=O)[C@H](C(C)C)NC(=O)[C@H](CC3CCCCC3)NC(=O)[C@H](CCN)NC(=O)[C@@H](CC(C)C)NC(=O)[C@H](CCCN)NC(=O)[C@H](CCCNC(N)=O)NC(=O)[C@H](Cc3ccc(-c4ccccc4)cc3)NC(=O)[C@H](C(C)C)NC2=O)c1 (stereo partly drawn) [Compound 3125] ({CH2CO}-[Dap]Y(Carboxymethyl)D[Phe(3-Me)]V[Bip][Cit][Orn][dL][Dab][Cha]V[Thr(3ξ)]C[Dab][12Ado]-OH; thioether N-14) | 29.1 nM
Cc1cccc(C[C@@H]2NC(=O)[C@H](CC(=O)O)NC(=O)[C@H](Cc3ccc(OCC(=O)O)cc3)NC(=O)[C@H](CN)NC(=O)CSC[C@@H](C(=O)N[C@@H](CCN)C(=O)NCCCCCCCCCCCCCCC(=O)O)NC(=O)[C@H](C(C)O)NC(=O)[C@H](C(C)C)NC(=O)[C@H](CC3CCCCC3)NC(=O)[C@H](CCN)NC(=O)[C@@H](CC(C)C)NC(=O)[C@H](CCCN)NC(=O)[C@H](CCCNC(N)=O)NC(=O)[C@H](Cc3ccc(-c4ccccc4)cc3)NC(=O)[C@H](C(C)C)NC2=O)c1 (stereo partly drawn) [Compound 3127] ({CH2CO}-[Dap]Y(Carboxymethyl)D[Phe(3-Me)]V[Bip][Cit][Orn][dL][Dab][Cha]V[Thr(3ξ)]C[Dab]-{NH(CH2)14COOH}; thioether N-14) | 308 nM
CC(C)C[C@H]1NC(=O)[C@H](CCCN)NC(=O)[C@H](C(C)C)NC(=O)[C@H](Cc2ccc(-c3ccccc3)cc2)NC(=O)[C@H](C(C)C)NC(=O)[C@H](Cc2c[nH]c3ccccc23)NC(=O)[C@H](CC(=O)O)NC(=O)[C@H](Cc2ccc(OCC(=O)O)cc2)NC(=O)[C@H](CN)NC(=O)CSC[C@@H](C(=O)NCCOCCOCC(=O)N[C@@H](CCCCN)C(=O)NCCCCCCCCCCC(=O)O)NC(=O)[C@H](C(C)O)NC(=O)[C@H](C(C)C)NC(=O)[C@H](CC2CCCCC2)NC(=O)[C@H](CC(N)=O)NC1=O (stereo partly drawn) [Compound 3128] ({CH2CO}-[Dap]Y(Carboxymethyl)DWV[Bip]V[Orn][dL]N[Cha]V[Thr(3ξ)]C[AEEA]K[Aun]-OH; thioether N-14) | 15.5 nM
CC(C)C[C@H]1NC(=O)[C@H](CCCCN)NC(=O)[C@H](C(C)C)NC(=O)[C@H](Cc2ccc(-c3ccccc3)cc2)NC(=O)[C@H](C(C)C)NC(=O)[C@H](Cc2c[nH]c3ccccc23)NC(=O)[C@H](CC(=O)O)NC(=O)[C@H](Cc2ccc(OCC(=O)O)cc2)NC(=O)[C@H](CCCCNC(=N)N)NC(=O)CSC[C@@H](C(=O)NCCOCCOCC(=O)N[C@@H](CCCCN)C(=O)NCCCCCCCCCCC(=O)O)NC(=O)[C@H](CO)NC(=O)[C@H](C(C)C)NC(=O)[C@H](CC2CCCCC2)NC(=O)[C@H](CC(N)=O)NC1=O [Compound 3129] ({CH2CO}-[hArg]Y(Carboxymethyl)DWV[Bip]VK[dL]N[Cha]VSC[AEEA]K[Aun]-OH; thioether N-14) | 53.4 nM
CC(C)C[C@H]1NC(=O)[C@H](CCCN)NC(=O)[C@H](C(C)C)NC(=O)[C@H](Cc2ccc(-c3ccccc3)cc2)NC(=O)[C@H](C(C)C)NC(=O)[C@H](Cc2c[nH]c3ccccc23)NC(=O)[C@H](CC(=O)O)NC(=O)[C@H](Cc2ccc(OCC(=O)O)cc2)NC(=O)[C@H](CCCCNC(=N)N)NC(=O)CSC[C@@H](C(=O)NCC(=O)NCCOCCOCC(=O)N[C@@H](CCCN)C(=O)NCCCCCCCCCCC(=O)O)NC(=O)[C@H](C(C)O)NC(=O)[C@H](C(C)C)NC(=O)[C@H](CC2CCCCC2)NC(=O)[C@H](CCN)NC1=O (stereo partly drawn) [Compound 3130] ({CH2CO}-[hArg]Y(Carboxymethyl)DWV[Bip]V[Orn][dL][Dab][Cha]V[Thr(3ξ)]CG[AEEA][Orn][Aun]-OH; thioether N-14) | 16.5 nM
CC(C)C[C@H]1NC(=O)[C@H](CCCN)NC(=O)[C@H](CCCNC(N)=O)NC(=O)[C@H](Cc2ccc(-c3ccccc3)cc2)NC(=O)[C@H](C(C)C)NC(=O)[C@H](Cc2c[nH]c3ccccc23)NC(=O)[C@H](CC(=O)O)NC(=O)[C@H](Cc2ccc(OCC(=O)O)cc2)NC(=O)[C@H](CN)NC(=O)CSC[C@@H](C(=O)NCCOCCOCC(=O)N[C@@H](CCCCN)C(=O)NCCCCCCCCCCC(=O)O)NC(=O)[C@H](CCCNC(N)=O)NC(=O)[C@H](C(C)C)NC(=O)[C@H](CC2CCCCC2)NC(=O)[C@H](CCN)NC1=O [Compound 3146] ({CH2CO}-[Dap]Y(Carboxymethyl)DWV[Bip][Cit][Orn][dL][Dab][Cha]V[Cit]C[AEEA]K[Aun]-OH; thioether N-14) | 7.8 nM
CC(C)C[C@H]1NC(=O)[C@H](CCCN)NC(=O)[C@H](C(C)C)NC(=O)[C@H](Cc2ccc(-c3ccccc3)cc2)NC(=O)[C@H](C(C)C)NC(=O)[C@H](Cc2c[nH]c3ccccc23)NC(=O)[C@H](CC(=O)O)NC(=O)[C@H](Cc2ccc(OCC(=O)O)cc2)NC(=O)[C@H](CN)NC(=O)CSC[C@@H](C(=O)NCCOCCOCC(=O)N[C@@H](CCCCN)C(=O)NCCCCCCCCCCC(=O)O)NC(=O)[C@H](C(C)O)NC(=O)[C@H](C(C)C)NC(=O)[C@H](CC2CCCCC2)NC(=O)[C@H](CC(=O)O)NC1=O (stereo partly drawn) [Compound 3147] ({CH2CO}-[Dap]Y(Carboxymethyl)DWV[Bip]V[Orn][dL]D[Cha]V[Thr(3ξ)]C[AEEA]K[Aun]-OH; thioether N-14) | 29.7 nM
CC(C)C[C@H]1NC(=O)[C@H](CCCN)NC(=O)[C@H](C(C)C)NC(=O)[C@H](Cc2ccc(-c3ccccc3)cc2)NC(=O)[C@H](C(C)C)NC(=O)[C@H](Cc2c[nH]c3ccccc23)NC(=O)[C@H](CC(=O)O)NC(=O)[C@H](Cc2ccc(OCC(=O)O)cc2)NC(=O)[C@H](CCCNC(N)=O)NC(=O)CSC[C@@H](C(=O)N[C@@H](CCCCN)C(=O)NCCCCCCCCCCC(=O)O)NC(=O)[C@H](C(C)O)NC(=O)[C@H](C(C)C)NC(=O)[C@H](CC2CCCCC2)NC(=O)[C@H](Cc2cnc[nH]2)NC1=O (stereo partly drawn) [Compound 3148] ({CH2CO}-[Cit]Y(Carboxymethyl)DWV[Bip]V[Orn][dL]H[Cha]V[Thr(3ξ)]CK[Aun]-OH; thioether N-14) | 56.7 nM

— patent US20260022142A1, “MACROCYCLIC IMMUNOMODULATORS” (Bristol-Myers Squibb Company, priority 2022, published 2026)
